Experimental data from patent publication US4530791A, “β-Lactam antibiotics” (Kowa Co., Ltd., priority 1979, dated 1985).
≈ marks a conversion by molar mass, not a printed value. Where two headings read alike, the source gives them in different places.

How the values were obtained:
[1] = test system: Pseudomonas aeruginosa 10490; assay: Antibacterial spectrum (minimum inhibitory concentration); assay type: cell-based
Source text: (§1) The antibacterial spectra against various microorganisms are shown in Table 2 in comparison with those of aminobenzyl penicillin (AB-Pc) and cefoxitin (CFX).

[2] = test system: Enterobacter aerogenes 972; assay: as above; assay type: cell-based; conditions: Klebsiella aerogenes
Source text: as §1

Serratia marcescens NHL = assay: as above; assay type: cell-based
Source text: as §1

Pseudomonas putida 5121 = assay: as above; assay type: cell-based
Source text: as §1

[3] = test system: Klebsiella pneumoniae 602; assay: as above; assay type: cell-based
Source text: as §1

[4] = test system: Staphylococcus epidermidis 1228; assay: as above; assay type: cell-based
Source text: as §1

Enterobacter cloacae 977 = assay: as above; assay type: cell-based
Source text: as §1

[5] = test system: Pseudomonas aeruginosa A-3; assay: as above; assay type: cell-based; conditions: A3
Source text: as §1

Klebsiella 32 (CS ase) = assay: as above; assay type: cell-based
Source text: as §1

[6] = test system: Excherichia coli NIHJ JC-2; assay: as above; assay type: cell-based
Source text: as §1

Citrobacter 24 (CS ase) [7] = assay: as above; assay type: cell-based
Source text: as §1

Proteus morganii 3168 = assay: as above; assay type: cell-based; conditions: Morganella morganii
Source text: as §1

Bacillus subtilis 6633 = assay: as above; assay type: cell-based
Source text: as §1

Proteus rettgari 13501 = assay: as above; assay type: cell-based
Source text: as §1

Citrobacter 1 (PC ase) = assay: as above; assay type: cell-based
Source text: as §1

Klebsiella 25 (PC ase) = assay: as above; assay type: cell-based
Source text: as §1

[8] = test system: Staphylococcus aureus 209P JC-1; assay: as above; assay type: cell-based
Source text: as §1

[9] = test system: Escherichia coli EC-1 (PC ase I); assay: as above; assay type: cell-based
Source text: as §1

Proteus vulgaris 874 = assay: as above; assay type: cell-based
Source text: as §1

Proteus inconstans Km115 = assay: as above; assay type: cell-based; conditions: Providencia alcalifaciens
Source text: as §1

[10] = test system: Escherichia coli EC-68 (PC ase IV); assay: as above; assay type: cell-based
Source text: as §1

Hafnia alvei 978 = assay: as above; assay type: cell-based
Source text: as §1

[11] = test system: Escherichia coli EC-59 (PC ase II); assay: as above; assay type: cell-based
Source text: as §1

[12] = molecular target: β-lactamase enzyme penicillin amidohydrolase EC 3.5.2.6; assay: β-Lactamase-inhibitory activity; assay type: biochemical; conditions: method of C. Reading and M. Cole
Experimental: When using as β-lactamase enzyme penicillin amidohydrolase EC 3.5.2.6 (Tokyo Chem. Syn. Co., Ltd.) derived from bacteria belonging to the genus Bacillus, the I50 value of the substance KA-6643-A was 0.5 ng/ml and that of the substance KA-6643-B was 12.8 ng/ml.
The I50 value was measured in accordance with the method of C. Reading and M. Cole [Antimicr. Agents and Chemoth. 11, 852-857 (1977)].

[13] = test system: Escherichia coli EC-1 (PC ase); assay: Antibacterial activity-improving action against β-lactam-resistant bacteria (disc, inhibiting zone); assay type: cell-based; conditions: Medium including E. coli EC-1; AB-Pc 1 mg/ml, KA-6643-A or -B 10 γ/ml, alone or combined; 8 mm disc, 37° C., 18 hours
Experimental: (§2) In the Penassay agar (12 g of which was dissolved in 500 ml of distilled water, Kyoei Pharm. Co., Ltd.) were inoculated Escherichia coli EC-1 (PC ase) and citrobacter 24 (CS ase) which were β-lactamase-producing organisms, and 10 ml of the inoculated medium was flowed on a Petri dish of 9 cm in diameter and solidified to give a test medium.
(§3) In this agar medium were placed pulp discs of 8 mm in diameter into which was introduced with […] of aqueous solutions of antibiotics, respectively, followed by culturing at 37° C. for 18 hours and then measuring the diameter of an inhibiting zone around each disc.

Citrobacter 24 (CS ase) [14] = assay: as above; assay type: cell-based; conditions: Medium including Citrobacter 24; AB-Pc 1 mg/ml, KA-6643-A or -B 10 γ/ml, alone or combined; 8 mm disc, 37° C., 18 hours
Experimental: as §2, §3

Solubility in solvent = assay type: physicochemical
[15] = Stability: half-life period at different values of pH (ultraviolet absorption spectroscopy); assay type: physicochemical; conditions: read-out: half-life period t1/2 (converted)
Source text: (11) Stability: The half-life period at different values of pH are as follows: […]
pH 4.0-7.0: Mcllvaine's buffer solution (sodium phosphate-citric acid) pH 10.0: 0.1M sodium carbonate-sodium hydrogen carbonate buffer solution […]
Ultraviolet absorption spectroscopy
(9) Stability: The half-life period at different values of pH are as follows:
The solvent and measurement are the same as in the substance KA-6643-A.

[16] = cited from earlier work
[17] = organic solvents: acetone, chloroform, ethyl acetate, petroleum ether
[18] = mcilvaine's buffer, pH 4.0, Mcllvaine's buffer
[19] = mcilvaine's buffer, pH 6.0, Mcllvaine's buffer
[20] = mcilvaine's buffer, pH 7.0, Mcllvaine's buffer
[21] = pH 10.0, 0.1M sodium carbonate-sodium hydrogen carbonate buffer

SMILES: CC1(C)S[C@@H]2[C@H](NC(=O)[C@H](N)c3ccccc3)C(=O)N2[C@H]1C(=O)O [AB-Pc, aminobenzyl penicillin, reference compound]
- MIC [1]: 100 µg/mL (≈ 286 µM)
- MIC [2]: 6.25 µg/mL (≈ 17.9 µM)
- MIC (Serratia marcescens NHL): 50 µg/mL (≈ 143 µM)
- MIC (Pseudomonas putida 5121): > 100 µg/mL
- MIC [3]: 12.5 µg/mL (≈ 35.8 µM)
- MIC [4]: 0.78 µg/mL (≈ 2.23 µM)
- MIC (Enterobacter cloacae 977): 100 µg/mL (≈ 286 µM)
- MIC [5]: > 100 µg/mL
- MIC (Klebsiella 32 (CS ase)): > 100 µg/mL
- MIC [6]: 6.25 µg/mL (≈ 17.9 µM)
- MIC (Citrobacter 24 (CS ase) [7]): > 100 µg/mL
- MIC (Proteus morganii 3168): > 100 µg/mL
- MIC (Bacillus subtilis 6633): ≤ 0.025 µg/mL
- MIC (Proteus rettgari 13501): 0.2 µg/mL (≈ 0.572 µM)
- MIC (Citrobacter 1 (PC ase)): > 100 µg/mL
- MIC (Klebsiella 25 (PC ase)): > 100 µg/mL
- MIC [8]: 0.05 µg/mL (≈ 0.143 µM)
- MIC [9]: > 100 µg/mL
- MIC (Proteus vulgaris 874): > 100 µg/mL
- MIC (Proteus inconstans Km115): 100 µg/mL (≈ 286 µM)
- MIC [10]: > 100 µg/mL
- MIC (Hafnia alvei 978): 50 µg/mL (≈ 143 µM)
- MIC [11]: > 100 µg/mL

SMILES: CO[C@@]1(NC(=O)Cc2cccs2)C(=O)N2C(C(=O)O)=C(COC(N)=O)CS[C@@H]21 [CFX, cefoxitin, reference compound]
- MIC [1]: > 100 µg/mL
- MIC [2]: > 100 µg/mL
- MIC (Serratia marcescens NHL): 12.5 µg/mL (≈ 29.2 µM)
- MIC (Pseudomonas putida 5121): > 100 µg/mL
- MIC [3]: 0.78 µg/mL (≈ 1.82 µM)
- MIC [4]: 1.56 µg/mL (≈ 3.65 µM)
- MIC (Enterobacter cloacae 977): > 100 µg/mL
- MIC [5]: > 100 µg/mL
- MIC (Klebsiella 32 (CS ase)): > 100 µg/mL
- MIC [6]: 6.25 µg/mL (≈ 14.6 µM)
- MIC (Citrobacter 24 (CS ase) [7]): > 100 µg/mL
- MIC (Proteus morganii 3168): 6.25 µg/mL (≈ 14.6 µM)
- MIC (Bacillus subtilis 6633): 1.56 µg/mL (≈ 3.65 µM)
- MIC (Proteus rettgari 13501): 1.56 µg/mL (≈ 3.65 µM)
- MIC (Citrobacter 1 (PC ase)): > 100 µg/mL
- MIC (Klebsiella 25 (PC ase)): 6.25 µg/mL (≈ 14.6 µM)
- MIC [8]: 1.56 µg/mL (≈ 3.65 µM)
- MIC [9]: 3.13 µg/mL (≈ 7.32 µM)
- MIC (Proteus vulgaris 874): 6.25 µg/mL (≈ 14.6 µM)
- MIC (Proteus inconstans Km115): 6.25 µg/mL (≈ 14.6 µM)
- MIC [10]: 6.25 µg/mL (≈ 14.6 µM)
- MIC (Hafnia alvei 978): 6.25 µg/mL (≈ 14.6 µM)
- MIC [11]: 6.25 µg/mL (≈ 14.6 µM)

SMILES: CC(=O)NC=C[S+]([O-])C1=C(C(=O)O)N2C(=O)C(C(C)(C)O)C2C1 (stereo not shown) [KA-6643-A]
- I50 value [12]: 0.5 ng/mL
- MIC [1]: 6.25 µg/mL (≈ 18.3 µM)
- MIC [2]: 0.1 µg/mL (≈ 0.292 µM)
- MIC (Serratia marcescens NHL): 0.2 µg/mL (≈ 0.584 µM)
- MIC (Pseudomonas putida 5121): 1.56 µg/mL (≈ 4.56 µM)
- MIC [3]: 0.2 µg/mL (≈ 0.584 µM)
- MIC [4]: 0.78 µg/mL (≈ 2.28 µM)
- MIC (Enterobacter cloacae 977): 0.78 µg/mL (≈ 2.28 µM)
- MIC [5]: 6.25 µg/mL (≈ 18.3 µM)
- MIC (Klebsiella 32 (CS ase)): 3.13 µg/mL (≈ 9.14 µM)
- MIC [6]: 0.05 µg/mL (≈ 0.146 µM)
- MIC (Citrobacter 24 (CS ase) [7]): 1.56 µg/mL (≈ 4.56 µM)
- MIC (Proteus morganii 3168): 0.39 µg/mL (≈ 1.14 µM)
- MIC (Bacillus subtilis 6633): 0.2 µg/mL (≈ 0.584 µM)
- MIC (Proteus rettgari 13501): 1.56 µg/mL (≈ 4.56 µM)
- MIC (Citrobacter 1 (PC ase)): 0.78 µg/mL (≈ 2.28 µM)
- MIC (Klebsiella 25 (PC ase)): 0.78 µg/mL (≈ 2.28 µM)
- MIC [8]: 0.39 µg/mL (≈ 1.14 µM)
- MIC [9]: 0.2 µg/mL (≈ 0.584 µM)
- MIC (Proteus vulgaris 874): 0.39 µg/mL (≈ 1.14 µM)
- MIC (Proteus inconstans Km115): 0.78 µg/mL (≈ 2.28 µM)
- MIC [10]: 0.05 µg/mL (≈ 0.146 µM)
- MIC (Hafnia alvei 978): 0.2 µg/mL (≈ 0.584 µM)
- MIC [11]: 0.05 µg/mL (≈ 0.146 µM)
- Diameter of inhibiting zone [13]: 18.0 mm
- Diameter of inhibiting zone (Citrobacter 24 (CS ase) [14]): 16.0 mm
- Solubility in solvent (Solubility in solvent; [17]): substantially insoluble
- Solubility in solvent (Solubility in solvent; water): Readily soluble
- half-life [15, 18]: 33 h
- half-life [15, 19]: 144 h
- half-life [15, 20]: 187 h
- half-life ([15]; pH 7.8): 110 h
- half-life [15, 21]: 2.8 h

SMILES: CC(=O)NC=C[S+]([O-])C1=C(C(=O)O)N2C(=O)C(C(C)(C)OS(=O)(=O)O)C2C1 (stereo not shown) [KA-6643-B]
- I50 value [12]: 12.8 ng/mL
- MIC [1]: 25 µg/mL (≈ 59.2 µM)
- MIC [2]: 3.13 µg/mL (≈ 7.41 µM)
- MIC (Serratia marcescens NHL): 6.25 µg/mL (≈ 14.8 µM)
- MIC (Pseudomonas putida 5121): 100 µg/mL (≈ 237 µM)
- MIC [3]: 6.25 µg/mL (≈ 14.8 µM)
- MIC [4]: 6.25 µg/mL (≈ 14.8 µM)
- MIC (Enterobacter cloacae 977): 6.25 µg/mL (≈ 14.8 µM)
- MIC [5]: 50 µg/mL (≈ 118 µM)
- MIC (Klebsiella 32 (CS ase)): 12.5 µg/mL (≈ 29.6 µM)
- MIC [6]: 1.56 µg/mL (≈ 3.69 µM)
- MIC (Citrobacter 24 (CS ase) [7]): 12.5 µg/mL (≈ 29.6 µM)
- MIC (Proteus morganii 3168): 12.5 µg/mL (≈ 29.6 µM)
- MIC (Bacillus subtilis 6633): 6.25 µg/mL (≈ 14.8 µM)
- MIC (Proteus rettgari 13501): 50 µg/mL (≈ 118 µM)
- MIC (Citrobacter 1 (PC ase)): 6.25 µg/mL (≈ 14.8 µM)
- MIC (Klebsiella 25 (PC ase)): 6.25 µg/mL (≈ 14.8 µM)
- MIC [8]: 6.25 µg/mL (≈ 14.8 µM)
- MIC [9]: 3.13 µg/mL (≈ 7.41 µM)
- MIC (Proteus vulgaris 874): 12.5 µg/mL (≈ 29.6 µM)
- MIC (Proteus inconstans Km115): 12.5 µg/mL (≈ 29.6 µM)
- MIC [10]: 3.13 µg/mL (≈ 7.41 µM)
- MIC (Hafnia alvei 978): 6.25 µg/mL (≈ 14.8 µM)
- MIC [11]: 1.56 µg/mL (≈ 3.69 µM)
- Solubility in solvent (Solubility in solvent; [17]): substantially insoluble
- Solubility in solvent (Solubility in solvent; water): Readily soluble
- half-life [15, 18]: 21.8 h
- half-life [15, 19]: 210 h
- half-life [15, 20]: 170 h
- half-life ([15]; pH 7.8): 130 h
- half-life [15, 21]: 7.9 h

SMILES: CC(=O)N/C=C/[S+]([O-])C1=C(C(=O)O)N2C(=O)C(C(C)OS(=O)(=O)O)C2C1 (stereo not shown) [MM-4550]
- half-life period t1/2 ([16]; pH 4): 5.5 h
- half-life period t1/2 ([16]; pH 6): 18 h
- half-life period t1/2 ([16]; pH 7): 10.5 h
- half-life period t1/2 ([16]; pH 7.8): 8.5 h
- half-life period t1/2 ([16]; pH 10): 19 h
